Data on two compounds can be found in patent US4150120A, “Ophthalmic” (Takeda Chemical Industries, Ltd., priority 1977, dated 1979).

In data set [1] the test system is cataract (dogs). Format: in vivo, dog. The method, then:
2, 1977. (Treatment) Starting on Feb. 28, 1977 opthalmic instillations of a 0.01% aqueous solution of free TRH were given 3 times a day. (Treatment) Starting on Aug. […] The right eye was treated simultaneously with the aqueous solution of TRH tartrate alone.

In data set [2] the test system is cataract (dogs). Format: in vivo, dog. This is another data set of the same source.
Data set [3] deals with progressive cataract (dogs). The arrangement: Evaluation: key to the marks not given beside the values. The settings on record: for Relapse: diagnosed after 3 months.
Data set [4] deals with acute conjunctivitis (dogs). Briefly: Treatment of acute conjunctivitis (dogs) by ophthalmic instillation of 0.01% TRH tartrate. Format: in vivo, dog. The text has this: The following examples illustrate the treatment of a case of acute catarrhal conjunctivitis and a case of drug-induced acute conjunctivitis, by ophthalmic instillation of TRH alone.
Setting [5] is: Case 3, left eye, with dexamethasone and flavine-adenine dinucleotide, August 20.

Each structure is given as a SMILES string. Where a name gives a salt, the structure may show the parent alone. Read-outs that look alike come from different tables or passages of the source.

`NC(=O)[C@@H]1CCCN1C(=O)[C@H](Cc1cnc[nH]1)NC(=O)[C@@H]1CCC(=O)N1` [TRH tartrate, L-pyroglutamyl-L-histidyl-L-prolinamide]: the “pannus, left eye” value in data set [1] (Case 3, left eye (immature cortical cataract and corneitis), with 0.02% dexamethasone and 0.05% flavine-adenine dinucleotide, 5 to 6 times daily, August 20) is reported as “the pannus had disappeared”. In addition, the “ciliary congestion, left eye” value in data set [1] (setting [5]) was “the ciliary congestion persisted”. In addition, the “pupillary reflex and dilation, left eye” value in data set [1] (setting [5]) was “satisfactory”. The “lens clarity, right eye” value in data set [1] (Case 3, right eye, TRH tartrate solution alone, 5 to 6 times daily, August 20) is recorded as “increased clarity in the upper margin of the lens”. Further, the “lens clarity, both eyes” value in data set [1] (Case 3, TRH tartrate solution alone from September 2, September 25) is reported as “significantly increased clarity”. Also, the “lens opacity, both eyes” value in data set [1] (Case 3, TRH tartrate solution and dexamethasone solution twice daily, September 2) is recorded as “only thinned opacities all over the lens”. The “side effect at the times of instillation” value in data set [1] (dog, in vivo) was “No side effect was noted”. Moreover, the pupillary reflex entry in data set [2] (Case 1, total cataract, 4 to 5 instillations daily from Feb. 2, on February 28) is listed as “normal”. For the same compound, in data set [2] (Case 1, on February 28), the “opacity of pupillary area” value is recorded as “reduced opacity”. Besides, the “clarity of the cortex of lens (visual examination)” value in data set [2] (Case 1, on March 10) is “improved”. The “day on which responses were elicited (generally, seven cases)” value in data set [3] (0.01% aqueous solution, 3 instillations a day, eye lids pressed after instillation) was “third”. The “result of first course” value in data set [3] (Case 1, 2 instillations daily for 3 consecutive days, then discontinued) was “apparently satisfactory”. Also, the “outcome of the case” value in data set [3] (Cases 1 and 2, 0.01% solution, 2 instillations daily) is reported as “judged to have been cured”; in data set [4] (Case 1, acute catarrhal conjunctivitis), “judged to have been cured”; in data set [4] (Case 2, drug-induced acute conjunctivitis), “cured”. For the same compound, the Evaluation result is reported as “++” in data set [3] (case 7, serious total cataract (bilateral), 3 instillations daily for 4 days plus TRH.corson injections on 1st and 3rd days); “+++” in data set [3] (case 9, transient central cataract due to traumatic corneitis (left eye), 2 instillations daily). The Relapse entry is recorded as “None” in data set [3] (case 7, with adjunct TRH.corson injections); “None” in data set [3] (cases 3-6 and 8). Moreover, in data set [3] (dog, in vivo), the “reaction after each instillation (irritation to the conjunctiva)” value is on record as “closed the lids for a while, followed by several blinkings”. Further, the findings at examination entry is “neither a hyperemia nor overflowing tears” in data set [4] (Case 1, acute catarrhal conjunctivitis, three instillations given every other day, 7th day after start); “the hyperemia had disappeared and the slightly dilated eye balls had become normal” in data set [4] (Case 2, acute conjunctivitis due to irritation by insecticide, 2 instillations given every other day).

Turning to `NC(=O)[C@@H]1CCCN1C(=O)[C@H](Cc1cnc[nH]1)NC(=O)[C@@H]1CCC(=O)N1` [TRH, L-pyroglutamyl-L-histidyl-L-prolinamide], the “lens of right eye” value in data set [1] (Case 2, senile cataract, 0.01% aqueous solution of free TRH 3 times a day from Feb. 28, on April 23) is “the lens cortex of the right eye was remarkably clear”. In data set [1] (Case 2, 0.01% free TRH 3 times a day, on April 23), the “lens of left eye” value was “the circumstances of lens in the left eye could be delineated”. Moreover, the “side effect during the instillation period” value in data set [1] (dog, in vivo) is “No side effect was observed”.
